Data published in ChEMBL document CHEMBL3714762, “Agents and methods for treating ischemic and other diseases” (2012).
pIC50: −log10 of the molar value. In brackets after ≈: the same amount, converted by molar mass.

How the values were obtained:
HeLa = test: Antiproliferative activity against human HeLa cells assessed as inhibition of cell proliferation at 10 uM incubated for 72 hrs by Cell-titer-Glo cell viability assay; type: functional
[1] = Antiproliferative activity against human WERI cells assessed as inhibition of cell proliferation by measuring normalized ratio of propidium iodide uptake at 5 uM by propidium iodide uptake based fluoroskan microplate reader analysis; type: functional
[2] = Antiproliferative activity against human WERI cells assessed as inhibition of cell proliferation by measuring normalized ratio of propidium iodide uptake at 10 uM by propidium iodide uptake based fluoroskan microplate reader analysis; type: functional
[3] = Antiproliferative activity against human WERI cells assessed as inhibition of cell proliferation by propidium iodide uptake based fluoroskan microplate reader analysis; type: functional
[4] = Antiproliferative activity against human WERI cells assessed as inhibition of cell proliferation at 10 uM by propidium iodide uptake based fluoroskan microplate reader analysis; type: functional
[5] = Antiproliferative activity against human WERI cells assessed as inhibition of cell proliferation at 5 uM by propidium iodide uptake based fluoroskan microplate reader analysis; type: functional
[6] = Antiproliferative activity against human MCF10A cells assessed as inhibition of cell proliferation at 10 uM incubated for 72 hrs by Cell-titer-Glo cell viability assay; type: cell-based, MCF-10A
[7] = Antiproliferative activity against mouse B16F10 cells assessed as inhibition of cell proliferation at 10 uM incubated for 72 hrs by Cell-titer-Glo cell viability assay; type: functional; conditions: B16-F10, 72 h
Y79 = test: Antiproliferative activity against human Y79 cells assessed as inhibition of cell proliferation at 10 uM incubated for 72 hrs by Cell-titer-Glo cell viability assay; type: functional; conditions: Y79, 72 h
MCF7 = test: Antiproliferative activity against human MCF7 cells assessed as inhibition of cell proliferation at 10 uM incubated for 72 hrs by Cell-titer-Glo cell viability assay; type: functional; conditions: MCF7, 72 h
[8] = Antiproliferative activity against human DMS53 cells assessed as inhibition of cell proliferation at 10 uM incubated for 72 hrs by Cell-titer-Glo cell viability assay; type: functional; conditions: DMS-53, 72 h
[9] = Antiproliferative activity against human WI38 cells assessed as inhibition of cell proliferation at 10 uM incubated for 72 hrs by Cell-titer-Glo cell viability assay; type: cell-based, WI-38
[10] = Solubility in aqueous solution; type: physicochemical
[11] = Stability in rat microsomes assessed half life; type: ADME, Microsome

Row | Compound | Ratio [1] | Ratio [2] | pIC50 [3] | other results
1 | COc1ccc(C)c(N(Cc2ccncc2)C(=O)c2sc3ccccc3c2Cl)c1 | 0.573 | 0.228 | 5.24 | inhibition at 10 µM (HeLa): > 40%
2 | Cc1ccc2c(c1)CCCN2C(=O)c1[nH]c2ccccc2c1Cl | 0.77 | 0.76 | – | inhibition at 10 µM [4]: 33%; inhibition at 5 µM [5]: 9%
3 | Cc1ccc2c(c1)CCN=C2c1sc2ccccc2c1Cl | 0.011 | 0.003 | 5.74 | inhibition at 10 µM (HeLa): > 40%; inhibition at 72 h, 10 µM [6]: > 40%; inhibition at 10 µM [7]: > 40%; inhibition at 10 µM (Y79): > 40%
4 | COc1ccc2c(Cl)c(C(=O)N3CCCc4cc(C)ccc43)sc2c1 | 0.294 | 0.11 | 5.39 | inhibition at 10 µM (HeLa): > 40%; inhibition at 10 µM (MCF7): > 40%; inhibition at 72 h, 10 µM [6]: > 40%; inhibition at 10 µM [7]: > 40%; inhibition at 10 µM (Y79): > 40%; inhibition at 10 µM [8]: > 40%; inhibition at 72 h, 10 µM [9]: > 40%
5 | COc1cc2c(cc1OC)C(c1sc3ccccc3c1Cl)NCC2 (stereo not given) | 0.019 | 0 | 7.10 | –
6 | COc1cc2c(cc1OC)CN(C(=O)c1sc3ccccc3c1Cl)CC2 | 0.042 | 0.024 | 6.21 | –
7 | Cc1c(Cc2ccc(Cl)c(Cl)c2)c(=O)oc2cc(O)c(F)cc12 | 0.314 | 0.002 | 5.39 | –
8 | COc1cc2c(cc1OC)C(c1sc3ccccc3c1Cl)N(C)CC2 (stereo not given) | 0.042 | 0 | 5.75 | –
9 | Cc1ccc(S(=O)(=O)Nc2sc3ccccc3c2Cl)cc1 | 0.297 | 0.121 | 5.44 | –
10 | COc1cc(OC)c2c(C)c(Cc3cccc(Cl)c3)c(=O)oc2c1 | 0.088 | 0.19 | 6.11 | –
11 | COc1cc2c(cc1OC)C(c1sc3cccc(OC)c3c1Cl)NCC2 (stereo not given) | 0.008 | 0.012 | 6.49 | –
12 | COc1cccc2c1CCN=C2c1sc2cccc(C)c2c1Cl | 0.042 | 0.13 | 6.44 | inhibition at 10 µM (HeLa): > 40%; inhibition at 10 µM (MCF7): > 40%; inhibition at 72 h, 10 µM [6]: > 40%; inhibition at 10 µM [7]: > 40%; inhibition at 10 µM (Y79): > 40%; inhibition at 10 µM [8]: > 40%; inhibition at 72 h, 10 µM [9]: > 40%
13 | COc1ccc2c(c1)CCNC2c1sc2ccccc2c1Cl (stereo not given) | 0.016 | 0.003 | 6.00 | –
14 | CCCc1c(Cc2cccc(Cl)c2)c(=O)[nH]c2cc(OC)cc(OC)c12 | 0.072 | 0.037 | 6.02 | –
15 | COc1cc2c(cc1OC)C(c1sc3cccc(C)c3c1Cl)=NCC2 | 0.042 | 0.028 | 6.47 | inhibition at 10 µM (HeLa): > 40%; inhibition at 10 µM (MCF7): > 40%; inhibition at 72 h, 10 µM [6]: > 40%; inhibition at 10 µM [7]: > 40%; inhibition at 10 µM (Y79): > 40%; inhibition at 10 µM [8]: > 40%; inhibition at 72 h, 10 µM [9]: > 40%; solubility [10]: 100 µM (≈ 37.2 µg/mL)
16 | Cc1ccc2c(c1)CCCN2C(=O)c1sc2ccc(F)cc2c1Cl | 0.321 | 0.064 | 5.34 | –
17 | Cc1ccc2c(c1)CCCN2C(=O)c1sc2cccc(C)c2c1Cl | 0.235 | 0.4 | 5.69 | –
18 | COc1ccc2sc(C(=O)N3CCCc4cc(C)ccc43)c(Cl)c2c1 | 0.116 | 0.051 | 5.55 | inhibition at 10 µM (HeLa): > 40%; inhibition at 10 µM (MCF7): > 40%; inhibition at 72 h, 10 µM [6]: > 40%; inhibition at 10 µM [7]: > 40%; inhibition at 10 µM (Y79): > 40%
19 | CN(Cc1ccccc1N1CCCC1)C(=O)c1sc2ccccc2c1Cl | 0.234 | 0.043 | 5.46 | –
20 | Cc1c(Cc2cccc(Cl)c2)c(=O)oc2cc(O)ccc12 | 0.41 | 0.041 | 5.25 | –

Row | Compound | Ratio [1] | Ratio [2] | pIC50 [3] | other results
21 | COc1ccc2c(c1)CCCN2C(=O)c1sc2ccccc2c1Cl | 0.695 | 0.276 | 5.25 | –
22 | Cc1ccc(N(Cc2cccc(C)n2)C(=O)c2sc3ccccc3c2Cl)c(C)c1 | 0 | 0.1 | 6.08 | inhibition at 10 µM (HeLa): > 40%; inhibition at 10 µM [7]: > 40%; inhibition at 10 µM (Y79): > 40%
23 | O=C(c1sc2ccccc2c1Cl)N1CCCc2ccccc21 | 0.545 | 0.216 | 5.01 | –
24 | COc1cc2c(cc1OC)C(c1sc3ccccc3c1Cl)=NCC2 | 0.011 | 0 | 7.30 | solubility [10]: 100 µM (≈ 35.8 µg/mL)
25 | O=C(NCc1ccccc1N1CCCC1)c1sc2ccccc2c1Cl | 0.195 | 0.375 | 5.90 | inhibition at 10 µM (HeLa): > 40%; inhibition at 10 µM (MCF7): > 40%; inhibition at 72 h, 10 µM [6]: > 40%; inhibition at 10 µM [7]: > 40%; inhibition at 10 µM (Y79): > 40%; inhibition at 10 µM [8]: > 40%
26 | Cc1c(Cc2c(F)cccc2Cl)c(=O)oc2cc(O)cc(O)c12 | 0.721 | 0.102 | – | half-life [11]: 5 min
27 | COc1ccc2c(c1)CCN(C)C2c1sc2ccccc2c1Cl (stereo not given) | 0.344 | 0.027 | 5.36 | –
28 | Clc1cccc2c1CCN=C2c1sc2ccccc2c1Cl | 0.065 | 0.1 | 5.65 | –
29 | COc1cc2c(cc1OC)C(c1sc3cccc(F)c3c1Cl)NCC2 (stereo not given) | 0.009 | 0 | 6.31 | –
30 | COc1ccc(C)c(N(Cc2cccnc2)C(=O)c2sc3ccccc3c2Cl)c1 | 0.08 | 0.1 | 5.63 | inhibition at 10 µM (HeLa): > 40%
31 | COc1cc2c(cc1OC)C(c1sc3cccc(C)c3c1Cl)NCC2 (stereo not given) | – | – | – | solubility [10]: 100 µM (≈ 37.4 µg/mL)
32 | COc1ccc2c(c1)C(c1sc3ccccc3c1Cl)=NCC2 | 0.36 | 0.07 | 5.49 | –
33 | COc1cc(OC)c2c(C)c(Cc3ccccc3)c(=O)[nH]c2c1 | – | – | – | half-life [11]: > 30 min
34 | COc1ccc2c(Cl)c(C3NCCc4cc(OC)c(OC)cc43)sc2c1 (stereo not given) | – | – | – | half-life [11]: > 30 min; solubility [10]: 100 µM (≈ 39 µg/mL)
35 | CC1c2ccsc2CCN1C(=O)c1sc2ccccc2c1Cl (stereo not given) | 0 | 0.056 | 5.81 | –
36 | Cc1ccc(N(C)C(=O)c2sc3ccccc3c2Cl)c(C)c1 | 0.53 | 0.33 | 5.34 | –
37 | Cc1ccc2c(c1)CCCN2C(=O)c1sc2cccc(F)c2c1Cl | 0.273 | 0.097 | 5.48 | –
38 | COc1ccc2c(c1)C(c1sc3cccc(C)c3c1Cl)=NCC2 | 0.019 | 0.047 | 5.88 | inhibition at 10 µM (HeLa): > 40%; inhibition at 10 µM (MCF7): > 40%; inhibition at 72 h, 10 µM [6]: > 40%; inhibition at 10 µM (Y79): > 40%; inhibition at 10 µM [8]: > 40%; inhibition at 72 h, 10 µM [9]: > 40%
39 | Fc1ccc2c(c1)CCCN2Cc1sc2ccccc2c1Cl | 0.286 | 0.098 | 5.39 | –
40 | O=C(c1sc2ccccc2c1Cl)N1CCCc2cc(Cl)ccc21 | 0.267 | 0.049 | 5.43 | –
